The inhibition is the change of the read-out against control, counted positive when it falls. A word on the IC50: it is the concentration that inhibits the measured activity by half.

These results are taken from patent US20040122080A1, “Synergist combinations of retinoid receptor ligands and selected cytotoxic agents for treatment of cancer” (priority 2004, published 2004).

Series [1] concerns MCF7 cells. The series can be described thus: Anchorage-dependent colony formation assay. The series is classed as cell-based, human. As to conditions: for colony formation and morphology: 6 days exposure, crystal violet. Here is the method:
(§1) To determine effects of RAR agonists on anchorage-dependent colony size, number and morphology, MCF7 cells were plated in 6 well plates (500 cells/well) in DMEM supplemented with 10% FBS and grown for 5 days. The medium was then removed and the compounds were added to the medium supplemented with 5% of charcoal stripped FBS (HyClone). The compound containing medium was renewed after 3 days and cultures were allowed to grow an additional 3 days. After 6 days exposure to compounds, colonies were stained with crystal violet. Colonies were counted to quantify colony area and number and photographed under light microscopy to assess effects on colony size and morphology. The results presented are representative of two independent experiments. Immunoblotting MCF-7 cellular lysates were prepared for Western blotting in accordance with procedures described by Sambrook et al. (MOLECULAR CLONING: A LABORATORY MANUAL, 2nd Ed.; Cold Spring Harbor Laboratory Press, Cold Spring Harbor, N. Y. (1989)). Cell lysates were prepared by adding 200 μl of lysis buffer (Tris-HCl, pH 6.8, 20 mM, EDTA 1 mM, NP-40 0.5%) containing a protease inhibitor cocktail (Roche) to each well of 6 well plates. The lysates were then cleared by centrifugation at 10,000 rpm, 4EC for 5 minutes and supernatants were adjusted with Laemmli sample buffer and processed by 10 or 15% SDS-polyacrylamide gel electrophoresis (PAGE), followed by transfer to nitrocellulose membranes (Biorad). Membranes were processed by standard methods and incubated with primary antibodies for 1 hour at room temperature or overnight at 4EC. Bound antibody was visualized using a goat anti-IgG secondary antibody conjugated to HRP and a chemiluminescent detection system (ECL, Amersham Pharmacia Biotech).

The subject of series [2] is MCF7. The series can be described thus: Mitogenic assay, growth inhibition ([3H]-thymidine incorporation), retinoid/paclitaxel co-treatment. The series is classed as cell-based, human. Here is the method: (§2) Cellular proliferation was quantified using [^3H] thymidine incorporation. Cells were plated in 96 well plates in media containing 10% fetal bovine serum (FBS) and allowed to adhere overnight. Cell medium was removed the following day and the indicated compounds were added to fresh medium supplemented with 10% of charcoal stripped FBS (HyClone). Compound-containing medium was renewed after 3 days exposure. After 6 day treatment, 4 μCi/ml of [^3H]thymidine (NEN Life Science Products) were added to each well for 2 to 4 hours. The cells were then trypsinized and harvested on GF/B glass fiber filters. [^3H]thymidine incorporated into the DNA was measured in a scintillation Topcount counter (Packard). The results were expressed as percent inhibition compared to the DMSO vehicle.
(In general: Uptake of a labelled nucleoside into DNA is a usual measure of proliferation.)

Series [3] has as its system OVCAR3. The series is described as above. The series is classed as cell-based, human. Here is the method:
as §2

For series [4], the system named is SQCC-Y1. The series is described as above. Format: cell-based, human. Here is the method:
as §2

The test system of series [5] is MCF7, OVCAR3 and SQCC-Y1 cells. In words: Growth inhibition, statements across the three human tumor cell lines. The series is classed as cell-based. As to conditions: co-treatment with paclitaxel, Table 1. Here is the method:
as §2

In series [6] the test system is AP1 transcriptional activity. The series can be described thus: AP1 reporter assay, MCF7 cells with (AP1)5x-tk-Luc. Format: cell-based, human. Here is the method:
AP1 transcriptional activity was assessed in MCF7 cells stably transfected with (AP1)5x-tk-Luc reporter gene (IGBMC, France). (AP1)5x corresponds to the collagenase gene AP1 response element repeated 5 times in tandem, tk is the minimal thymidine kinase promoter, and Luc the coding sequence of the luciferase gene. MCF7 cells were plated in 12-well plates at a density of 400,000 cells per well in DMEM supplemented with 10% FBS and allowed to adhere overnight. The next day, the medium was removed, the cells were washed with PBS and supplemented with DMEM medium containing 0.5% of charcoal stripped FBS (HyClone). […] The luciferase activity was measured by using Luc-lite system from Packard according to manufacturer's recommendations. Results are expressed as percent activity compared to PMA (10 nM) which was assigned as 100% activity. The data presented are the mean ± sem (standard error of the mean)of 3 independent experiments.

Series [7] concerns Jun N-terminal Kinase (JNK). In words: Jun N-terminal Kinase assay (immunoprecipitated JNK from MCF7 cells). The series is classed as cell-based, human. Here is the method:
Activity of JNK was measured in accordance with procedures described by Coso et al. (Cell 1995 81:1137-1146) with minor modifications. MCF-7 cells were plated in 6-well plates in DMEM supplemented with 10% FBS and allowed to adhere overnight. The next day, the cells were switched to DMEM supplemented with 0.5% charcoal-stripped FBS (HyClone) and 100 nM of indicated retinoids or 0.1% DMSO was added to the cells for 24 hours before an additional 2 to 3 hours incubation in the presence of 1 μM of paclitaxel. Cell lysates was prepared from each well as described and cleared by centrifugation. JNK was immunoprecipitated from each lysate by incubating overnight at 4° C. with 1 μg of anti-hJNK (Pharmingen) and 25 μl of protein G agarose beads (Gibco-BRL) previously washed with the lysis buffer. Immune complexes were pelleted by centrifugation 2 minutes at 10,000 rpm 4° C. and washed 3 times with PBS containing 1% NP40 and 2 mM of Na3VO4, once with 100 mM Tris-HCl pH7.5, 0.5 mM LiCl and once with Kinase Reaction Buffer (KRB: 12.5 mM MOPS pH7.5, 12.5 mM β-glycerolphosphate, 7.5 mM MgCl2, 0.5 mM EGTA, 0.5 mM NaF, 0.5 mM Na3VO4). […] The kinase reaction was terminated by adding 10 μl of Laemmli sample buffer. resolved by 10% SDS-PAGE and phosphorylated GST-c-Jun visualized by autoradiography and quantified by densitometry. […]

Series [8] has as its system Bcl-2. In words: Bcl-2 expression and phosphorylation (immunoblotting). Format: cell-based, human. As to conditions: MCF7; single agent. Here is the method: as §1, with “The lysates were then cleared by centrifugation at 10,000 rpm, 4EC for 5 minutes and supernatants were adjusted with Laemmli sample buffer and processed by 10 or 15% SDS-polyacrylamide gel electrophoresis (PAGE), followed by transfer to nitrocellulose membranes (Biorad). Membranes were processed by standard methods and incubated with primary antibodies for 1 hour at room temperature or overnight at 4EC. Bound antibody was visualized using a goat anti-IgG secondary antibody conjugated to HRP and a chemiluminescent detection system (ECL, Amersham Pharmacia Biotech).” left out

In series [9] the test system is tubulin. The series can be described thus: Tubulin polymerization assay in MCF7 cells. The series is classed as cell-based, human. As to conditions: single agent, Western blotting of soluble and polymerized tubulin. On the technique in general: Immunoblotting shows a protein as a band on a membrane.
Experimental: The effects of retinoid and paclitaxel exposure on free and polymerized tubulin levels were determined in accordance with procedures described by Giannakakou et al. (J. Biol. Chem. 1997 272:17118-17125). MCF7 cells were plated in 6 well plates in DMEM supplemented with 10% FBS and allowed to adhere overnight. Cell medium was removed the following day and the indicated compounds were added to fresh medium supplemented with 5% of charcoal stripped FBS (HyClone). The cells were grown for 3 days in the presence of the retinoids before paclitaxel was added for 1 hour. Soluble and polymerized tubulin were extracted and respective levels were assessed by Western blotting as described above using anti-(tubulin antibodies (n=2).
The mark [10] stands for this setting: Homo sapiens, 144 h, maximal inhibition, paclitaxel co-treated with the labelled retinoid (none = paclitaxel alone), read-out: Efficacy (percent inhibition compared with DMSO).

Consider `CC1=C(/C=C/C(C)=C/C=C/C(C)=C/C(=O)O)C(C)(C)CCC1` [ATRA, all trans retinoic acid], for which the “colony formation and morphology” value in [1] (MCF7) was “impaired colony formation”. Moreover, in series [1] (MCF7 colonies), the “apoptosis in treated colonies” value is “high level of apoptosis”.

As for `CC(C)(C)/C=C\C1=CCC(C)(C)c2ccc(/C=C/c3ccc(C(=O)O)cc3)cc21` [Formula Ia], the “decrease of the IC50 of paclitaxel in the presence of the retinoid” value in series [2] is 8 fold; in series [3], 15 fold; in series [4] it was 32 fold. The “effect on the effective dose of paclitaxel required to induce cytotoxicity” value in series [5] is given as “dramatically lowered the effective dose of paclitaxel required to induce cytotoxicity”. Moreover, in series [1] (MCF7), the “colony formation and morphology” value was “dramatic change in the morphology of both the colonies and the cells”. The inhibition at 0.05 µM in series [6] (Homo sapiens, MCF7, at 50 nM, PMA 10 nM, 6 hours, read-out: inhibition of PMA-induced AP1 reporter activity, maximum) fell in the range of 30 to 45%.

Take `Cc1cccc(C2=CC(=O)C(C)(C)c3cc4ccc(-c5ccc(C(=O)O)cc5)cc4cc32)c1` [Formula II, 4-(5,6-dihydro-5,5-dimethyl-6-oxo-8-(3-methyl-phenyl)-anthracen-2-yl)-benzoic acid]: the “effect on the effective dose of paclitaxel required to induce cytotoxicity” value in series [5] is recorded as “lowered the effective dose of paclitaxel required to induce cytotoxicity”. The “colony formation and morphology” value in [1] (MCF7) was “strongly impaired colony formation”. For the same molecule, the “sensitivity of the cells to paclitaxel” value in series [1] (MCF7, pre-treatment for three days) was “significantly enhanced the sensitivity of the cells to paclitaxel”. Further, in [7] (combination with paclitaxel), the “effect on paclitaxel-induced JNK activity” value is recorded as “did not modify paclitaxel-induced JNK activity”. For the same molecule, the “effect on paclitaxel/PMA-induced AP1 activity” value in [6] (combination with paclitaxel) was “did enhance the effects of paclitaxel/PMA or AP1 activity”.

As for `CC(=O)O[C@H]1C(=O)[C@@]2(C)[C@H]([C@H](OC(=O)c3ccccc3)[C@]3(O)C[C@H](OC(=O)[C@H](O)[C@@H](NC(=O)c4ccccc4)c4ccccc4)C(C)=C1C3(C)C)[C@]1(OC(C)=O)CO[C@@H]1C[C@@H]2O` [paclitaxel], the Emax in series [2] (setting [10]) came out at 100%; in [3] (Homo sapiens, OVCAR-3, 144 h, maximal inhibition, paclitaxel co-treated with the labelled retinoid (none = paclitaxel alone), read-out: Efficacy (percent inhibition compared with DMSO)), 99%; in [4] (setting [10]), 100%. Besides, the half-inhibitory concentration (IC50) in series [3] (Homo sapiens, OVCAR-3, 144 h, 6 day treatment, paclitaxel co-treated with the labelled retinoid (none = paclitaxel alone), mean of 2 to 5 experiments) amounted to 0.6 nM; in [4] (Homo sapiens, 144 h, 6 day treatment, paclitaxel co-treated with the labelled retinoid (none = paclitaxel alone), mean of 2 to 5 experiments) it was 0.16 nM. Also, the “phosphorylation of Bcl-2” value in series [8] is “dose-dependent increase”. The polymerization of tubulin entry in series [9] is recorded as “dose-dependent polymerization of tubulin”. Besides, the “increase in JNK activity” value in [7] (single agent, paclitaxel 1 μM 2 to 3 hours, retinoids 100 nM 24 hours) is 2.5 fold. The “enhancement of PMA-induced AP1 transcriptional activity” value in series [6] (single agent, paclitaxel 1 μM, PMA 10 nM) stood at 20%.
